Entries after “also recorded” stand apart in the source; their conditions may differ.
Key:
[1] = Anti-DPPH free radical test (spectrophotometry at 517 nm); format: biochemical; settings: for DPPH free radical scavenging ability with the reaction time / Hydrolysis in the reaction liquid with the reaction time: 30-150 min; for Hydrolysis in the reaction liquid with the reaction time: 95% ethanol, pH 7.5, room temperature; for DPPH free radical scavenging ability E, one value per sample (mean of the five concentrations) / DPPH free radical scavenging ability V / DPPH free radical scavenging ability, comparison between samples / DPPH free radical scavenging ability E / DPPH free radical scavenged by one molecular of compound: 30 min
Description: Anti-DPPH Free Radical Test
2,2-diphenyl-1-picrylhydrazyl (DPPH) free radical spectrophotometry is a simple method for screening antioxidants, the principle of which is using the characteristic absorption peak of DPPH solution at 517 nm. When free radical scavengers existed, single electron pairing between free radical scavenger and DPPH allowed the absorption of DPPH disappeared, and its decoloring degree and accepted electron number present as quantitative relation, and the antioxidant activity of samples can be evaluated through the amount of cleared DPPH, so the spectrophotometry can be used for quantitative analysis.
DPPH was accurately weighed and placed in a volumetric flask, and diluted to 100 ml with 95% ethanol. The absorbance (A) of DPPH was measured at 517 nm.
DPPH standard curve was shown in FIG. 1, the linear equation of which was as follows: y=0.219x−0.0285; r=0.9994.
DPPH was accurately weighed and placed in a 100 ml volumetric flask, and diluted to 100 ml with 95% ethanol to produce the DPPH solution.
Preparation of Test Drug Solution: the Test Drug was Accurately Weighed and Placed in a 100 ml volumetric flask, dissolved with 20 ml of 95% ethanol, adjusted to pH 7.5 and diluted to 100 ml with 95% ethanol.
5.0 ml of DPPH solution and 2.0 ml test drug solution were taken and placed in a 10 ml volumetric flask, fully shaken at room temperature for a certain time followed by determination of absorption value (A) at 517 nm.
Formula for calculating DPPH free radical scavenging ability of test drug, E (mgDPPH/mg):
Formula for calculating DPPH free radical scavenging ability of test drug, V (mmolDPPH/mmol): […]

[2] = test system: cerebral ischemia reperfusion model of middle cerebral artery occlusion (MCAO); assay: Cerebral ischemia reperfusion model of middle cerebral artery occlusion (MCAO), suture method; format: in vivo, SD rats; settings: for Variation value of water content in brain (%) / brain tissue MDA content / brain tissue SOD activity / Scores of neurological defect symptoms / Cerebral infarction area (%) / Cerebral infarction area (%) (table title: brain injury): X ± SD; for Cerebral infarction area (%): Table 5; for Cerebral infarction area (%) (table title: brain injury): Table 6, brain injury
Experimental: Cerebral ischemia reperfusion model of middle cerebral artery occlusion (MCAO) was established in SD rats using the suture method of internal carotid artery. Test rats were administrated once 0.5 hours after ischemia reperfusion, then once every 2 hours, for totally three times. Neurological defect symptoms were observed 48 hours after cerebral ischemia.

[3] = test drug C 0.152 (Edaravone), 0.153 (Compound 1, 2), 0.159 (Compound 3) mg/100 ml
[4] = test drug C 0.304 (Edaravone), 0.305 (Compound 1, 2), 0.318 (Compound 3) mg/100 ml
[5] = test drug C 0.608 (Edaravone), 0.610 (Compound 1, 2), 0.635 (Compound 3) mg/100 ml
[6] = test drug C 1.215 (Edaravone), 1.220 (Compound 1, 2), 1.270 (Compound 3) mg/100 ml
[7] = test drug C 2.430 (Edaravone), 2.440 (Compound 1, 2), 2.540 (Compound 3) mg/100 ml
[8] = TR high dose group (6.0 mg/kg), P<0.001
[9] = TR 1.5 mg/kg, three administrations, n=7
[10] = TR 3.0 mg/kg, three administrations, n=8
[11] = TR 6.0 mg/kg, three administrations, n=8
[12] = Nimodipine 0.4 mg/kg, three administrations, n=10

2-methyl-benzo[d][1,3]oxazin[5-b]pyrazole-5-one [Compound 1]
DPPH free radical scavenging ability with the reaction time [1]: gradually increased
Hydrolysis in the reaction liquid with the reaction time [1]: gradually hydrolyzed into Compound 3
DPPH free radical scavenging ability E, one value per sample (mean of the five concentrations) [1]: 1.687 mgDPPH/mg
DPPH free radical scavenging ability V [1]: 0.856 mmolDPPH/mmol
DPPH free radical scavenging ability, comparison between samples [1]: one-eighth of Compound 3
DPPH free radical scavenging ability E [1, 3]: 1.650 mgDPPH/mg
DPPH free radical scavenging ability E [1, 4]: 1.481 mgDPPH/mg
DPPH free radical scavenging ability E [1, 5]: 1.252 mgDPPH/mg
DPPH free radical scavenging ability E [1, 6]: 2.262 mgDPPH/mg
DPPH free radical scavenging ability E [1, 7]: 1.792 mgDPPH/mg
DPPH free radical scavenging ability, comparison with Compound 3 ([1]; at 150 min): equivalent with Compound 3

CC1=NN(c2ccccc2)C(=O)C1 [Edaravone, edaravone, reference compound]
DPPH free radical scavenged by one molecular of compound [1]: 1.657 molecular of DPPH free radical
DPPH free radical scavenging ability E, one value per sample (mean of the five concentrations) [1]: 3.752 mgDPPH/mg
DPPH free radical scavenging ability V [1]: 1.657 mmolDPPH/mmol
DPPH free radical scavenging ability E [1, 3]: 3.222 mgDPPH/mg
DPPH free radical scavenging ability E [1, 4]: 3.195 mgDPPH/mg
DPPH free radical scavenging ability E [1, 5]: 3.322 mgDPPH/mg
DPPH free radical scavenging ability E [1, 6]: 4.785 mgDPPH/mg
DPPH free radical scavenging ability E [1, 7]: 4.237 mgDPPH/mg

Cc1cc2oc(=N)c3ccccc3n2n1 [TR, 2-methyl-5-imino-benzo[d][1,3]oxazin[5-b]pyrazole]
DPPH free radical scavenging ability with the reaction time [1]: gradually increased
Hydrolysis in the reaction liquid with the reaction time [1]: gradually hydrolyzed into Compound 3
DPPH free radical scavenging ability E, one value per sample (mean of the five concentrations) [1]: 0.419 mgDPPH/mg
DPPH free radical scavenging ability V [1]: 0.212 mmolDPPH/mmol
DPPH free radical scavenging ability E [1, 3]: 0.409 mgDPPH/mg
DPPH free radical scavenging ability E [1, 4]: 0.368 mgDPPH/mg
DPPH free radical scavenging ability E [1, 5]: 0.310 mgDPPH/mg
DPPH free radical scavenging ability E [1, 6]: 0.561 mgDPPH/mg
DPPH free radical scavenging ability E [1, 7]: 0.445 mgDPPH/mg
Variation value of water content in brain (%) ([2]; TR 1.5 mg/kg, n=7): 2.1 ± 1.08 %
brain tissue MDA content ([2]; TR 1.5 mg/kg, n=7): 6.6 ± 1.30 nmol/mgprot
brain tissue SOD activity ([2]; TR 1.5 mg/kg, n=7): 107.1 ± 15.5 U/mgprot
Variation value of water content in brain (%) ([2]; TR 3.0 mg/kg, n=8): 2.0 ± 1.01 %
brain tissue MDA content ([2]; TR 3.0 mg/kg, n=8): 6.5 ± 0.81 nmol/mgprot
brain tissue SOD activity ([2]; TR 3.0 mg/kg, n=8): 121.6 ± 16.8 U/mgprot
Variation value of water content in brain (%) ([2]; TR 6.0 mg/kg, n=9): 1.2 ± 0.55 %
brain tissue MDA content ([2]; TR 6.0 mg/kg, n=9): 5.0 ± 1.10 nmol/mgprot
brain tissue SOD activity ([2]; TR 6.0 mg/kg, n=9): 132.7 ± 21.0 U/mgprot
MDA content compared with the model group [2, 8]: significantly decreased
brain injury compared with the model group [2, 8]: significantly reduced
cerebral infarction area compared with the model group [2, 8]: significantly reduced
water content in brain compared with the model group [2, 8]: significantly reduced
SOD activity compared with the model group ([2]; TR high dose group (6.0 mg/kg), P=0.007): significantly increased
cerebral infarction area compared with the model group ([2]; TR low dose group (1.5 mg/kg), P=0.044): significantly reduced
water content in brain compared with the model group ([2]; TR low dose group (1.5 mg/kg), P=0.086): No obvious difference
MDA content compared with the model group ([2]; TR low dose group (1.5 mg/kg), P=0.211): No obvious difference
SOD activity compared with the model group ([2]; TR low dose group (1.5 mg/kg), P=0.826): No obvious difference
cerebral infarction area compared with the model group ([2]; TR medium dose group (3.0 mg/kg), P<0.001): significantly reduced
brain injury compared with the model group ([2]; TR medium dose group (3.0 mg/kg), P=0.001): significantly reduced
water content in brain compared with the model group ([2]; TR medium dose group (3.0 mg/kg), P=0.039): significantly reduced
MDA content compared with the model group ([2]; TR medium dose group (3.0 mg/kg), P=0.141): No obvious difference
SOD activity compared with the model group ([2]; TR medium dose group (3.0 mg/kg), P=0.157): No obvious difference
Scores of neurological defect symptoms ([2]; Table 4 series, TR 1.5 mg/kg, three administrations, 48 hours after cerebral ischemia, n=7): 1.6 ± 0.75
Scores of neurological defect symptoms ([2]; Table 4 series, TR 3.0 mg/kg, three administrations, 48 hours after cerebral ischemia, n=8): 1.1 ± 0.44
Scores of neurological defect symptoms ([2]; Table 4 series, TR 6.0 mg/kg, three administrations, 48 hours after cerebral ischemia, n=8): 1.0 ± 0.46
neurological defect symptoms compared with the model group ([2]; Table 4 series, TR high dose group (6.0 mg/kg), P<0.001): significantly reduced
neurological defect symptoms compared with the model group ([2]; Table 4 series, TR low dose group (1.5 mg/kg), P=0.001): significantly reduced
neurological defect symptoms compared with the model group ([2]; Table 4 series, TR medium dose group (3.0 mg/kg), P<0.001): significantly reduced
Cerebral infarction area (%) [2, 9]: 26.5 ± 13.24 %
Cerebral infarction area (%) [2, 10]: 17.4 ± 10.05 %
Cerebral infarction area (%) [2, 11]: 6.7 ± 6.30^#& %
Cerebral infarction area (%) (table title: brain injury) [2, 9]: 33.6 ± 16.08 %
Cerebral infarction area (%) (table title: brain injury) [2, 10]: 22.7 ± 12.10 %
Cerebral infarction area (%) (table title: brain injury) [2, 11]: 8.1 ± 5.68^#& %
Scores of neurological defect symptoms ([2]; Table 7 series, TR 1.5 mg/kg, n=7): 1.9 ± 0.84
Scores of neurological defect symptoms ([2]; Table 7 series, TR 3.0 mg/kg, n=8): 1.8 ± 0.70
Scores of neurological defect symptoms ([2]; Table 7 series, TR 6.0 mg/kg, n=9): 1.0 ± 0.58
neurological defect symptoms compared with the model group ([2]; Table 7 series, TR high dose group (6.0 mg/kg), P<0.001): significantly relieved
neurological defect symptoms compared with the model group ([2]; Table 7 series, TR low dose group (1.5 mg/kg), P=0.001): significantly relieved
neurological defect symptoms compared with the model group ([2]; Table 7 series, TR medium dose group (3.0 mg/kg), P<0.001): significantly relieved
onset dose ([2]; improvement of neurological defect symptoms, infarction area, brain injury, brain edema, lipid peroxidation in cerebral ischemia-reperfusion animals): 3 mg/kg

Cc1cc(=O)n(-c2ccccc2C#N)[nH]1 [Compound 3, 1-(2-cyanophenyl)-3-methylpyrazol-5-one]
DPPH free radical scavenged by one molecular of compound [1]: 1.942 molecular of DPPH free radical
DPPH free radical scavenging ability E, one value per sample (mean of the five concentrations) [1]: 3.510 mgDPPH/mg
DPPH free radical scavenging ability V [1]: 1.942 mmolDPPH/mmol
DPPH free radical scavenging ability, comparison between samples [1]: the largest; also recorded: slightly stronger than Edaravone
DPPH free radical scavenging ability E [1, 3]: 3.067 mgDPPH/mg
DPPH free radical scavenging ability E [1, 4]: 3.215 mgDPPH/mg
DPPH free radical scavenging ability E [1, 5]: 2.770 mgDPPH/mg
DPPH free radical scavenging ability E [1, 6]: 4.032 mgDPPH/mg
DPPH free radical scavenging ability E [1, 7]: 4.464 mgDPPH/mg

COCCOC(=O)C1=C(C)NC(C)=C(C(=O)OC(C)C)C1c1cccc([N+](=O)[O-])c1 (centres unmarked) [Nimodipine, nimodipine, reference compound]
Variation value of water content in brain (%) ([2]; Nimodipine 0.4 mg/kg, n=7): 1.6 ± 0.59 %
brain tissue MDA content ([2]; Nimodipine 0.4 mg/kg, n=7): 7.6 ± 1.28 nmol/mgprot
brain tissue SOD activity ([2]; Nimodipine 0.4 mg/kg, n=7): 114.8 ± 16.4 U/mgprot
Scores of neurological defect symptoms ([2]; Table 4 series, Nimodipine 0.4 mg/kg, three administrations, 48 hours after cerebral ischemia, n=10): 1.2 ± 0.41
Cerebral infarction area (%) [2, 12]: 6.7 ± 6.30^#& %
Cerebral infarction area (%) (table title: brain injury) [2, 12]: 12.8 ± 12.09^#& %
Scores of neurological defect symptoms ([2]; Table 7 series, Nimodipine 0.4 mg/kg, n=7): 1.3 ± 0.86

From patent publication US7973036B2, “2-methyl-5-imino-benzo[D][1 ,3]oxazin[5-B]pyrazole compound, preparation and use thereof” (Qingdao Huanghai Pharmaceutical Co., Ltd, priority 2008, dated 2011)
